This experiment concerns platelet aggregation induced by PAF. The experiment in a line: PAF-induced platelet aggregation inhibition (method of Born, aggregometer, platelet rich plasma). Type of experiment: cell-based. The note with it: in vitro, rabbit PRP 50-55×10^4 /μl, 37° C., PAF C16 final 20 nM added 2 minutes after compound, read-out: IC50 (concentration of the test compounds which inhibit 50% platelet aggregation). How it is done: Mature male rabbits (NIBS-JW, RABITON Institute Inc., weighing 2.2-2.5 kg) were used. […] (The total volume of blood sample in each tube was adjusted to 8 ml.)
The blood sample in each tube was gently shaken and then centrifuged for 10 minutes at 200 g at 22° C. to give platelet rich plasma (PRP). The remaining blood was further centrifuged at 3,000 rpm (about 1,900 g) for 10 minutes at 22° C. to give platelet-poor plasma (PPP).
PRP was diluted with PPP to prepare a blood sample whose platelet number was 50-55×10^4 /μl. The sample was then subjected to a platelet aggregation test.
A volume of 230 μl of PRP, whose platelet number was adjusted to 50-55×10^4 /μl, was placed in a measuring cuvette and set in the aggregometer. PRP was warmed at 37° C. for 1 minute with stirring at 1,200 rpm, and then a solution of the test compound [dimethylsulfoxide solution (1μl) of the compound+saline (9μl)] was added thereto. Exactly 2 minutes later, 10 μl of platelet activating factor (PAF, C16) (final concentration: 20 nM) was added as a platelet aggregating agent, and the change in light transmission caused by platelet aggregation was recorded.
The light transmissions of PRP and PPP were taken as 0% and 100% aggregation, respectively, and the maximum light transmission after addition of an aggregating agent was made the maximum aggregation. The inhibition rate of the platelet aggregation was expressed as the percentage of the maximum aggregation by a test compound to that by a control (Vehicle added group).

[1] abbreviates: Oryctolagus cuniculus, Platelet, 2 min.

pIC50: −log10 of the molar value. Like-named read-outs stand apart in the source and are kept apart here.

`CCCCCCCCCCCCCCCCCCNC(=O)OCC(CNS(=O)(=O)CCC[n+]1cccc2ccccc21)Oc1ccon1` (stereo not shown) [I j3, 2-(3-isoxazolyloxy)-1-octadecylcarbamoyloxy-3-(3-quinoliniopropylsulfonylamino)propane iodide]: under setting [1], the pIC50 is 6.60. For the compound `CCCCCCCCCCCCCCCCSCC(CNS(=O)(=O)CCC[n+]1ccsc1)OC` (stereo not shown) [I a9, 1-hexadecylthio-2-methoxy-3-(3-thiazoliopropylsulfonylamino)propane iodide], the pIC50 under setting [1] is 5.44. Regarding `CCCCCCCCCCCCCCCCSCC(CNS(=O)(=O)CCC[n+]1cccc2ccccc21)OC(=O)NC` (stereo not shown) [I c1, 1-hexadecylthio-2-methylcarbamoyloxy-3-(3-quinoliniopropylsulfonylamino)propane iodide], the pIC50 under setting [1] is 6.04. Regarding `CCCCCCCCCCCCCCCCSCC(CNS(=O)(=O)CCC[N+](C)(C)C)n1nnc(C)n1` (stereo not shown) [I h1, 1-hexadecylthio-2-(5-methyl-2H-tetrazol-2-yl)-3-(3-trimethylammoniopropylsulfonylamino)propane iodide], the pIC50 under setting [1] was 4.63. Same read-out and setting: in the case of `CCCCCCCCCCCCCCCCSCC(CNS(=O)(=O)CCC[n+]1cccc2ccccc21)NC(=O)NC` (stereo not shown) [I f4] it was 6.06; in that of `CCCCCCCCCCCCCCCCCCNC(=O)OCC(CNS(=O)(=O)CCC[n+]1cscc1C)OC` (stereo not shown) [I a5], 5.72. For `CCCCCCCCCCCCCCCCCCNC(=O)OCC(CNS(=O)(=O)CCCC[n+]1ccc2ccccc2c1)OC` (stereo not shown) [I a20], the pIC50 is 4.80. As to `CCCCCCCCCCCCCCCCCCNC(=O)OCC(CNS(=O)(=O)CCC[n+]1ccsc1)OC` (stereo not shown) [I a2, 2-methoxy-1-octadecylcarbamoyloxy-3-(3-thiazoliopropylsulfonylamino)propane iodide], the pIC50 under setting [1] was 5.72. For the compound `CCCCCCCCCCCCCCCCCCNC(=O)OCC(CNS(=O)(=O)CCC[n+]1cccc2ccccc21)NC(C)=O` (stereo not shown) [I g4, 2-acetamido-1-octadecylcarbamoyloxy-3-(3-quinoliniopropylsulfonylamino)propane iodide], the pIC50 under setting [1] was 5.74.

Take `CCCCCCCCCCCCCCCCCCNC(=O)OCC(CNS(=O)(=O)CC[n+]1ccsc1)OC` (stereo not shown) [I a12, 2-methoxy-1-octadecylcarbamoyloxy-3-(2-thiazolioethylsulfonylamino)propaneiodide]: the pIC50 under setting [1] was 5.23. On to `CCCCCCCCCCCCCCCCCCNC(=O)OCC(CNS(=O)(=O)CCC[n+]1cccc2ccccc21)OC` (stereo not shown) [I a7], for which, under setting [1], the pIC50 is 6.19. With `CCCCCCCCCCCCCCCCCCNC(=O)OCC(CNS(=O)(=O)CCC[n+]1cccc2ccccc21)COC` (stereo not shown) [I k5, 2-methoxymethyl-1-octadecylcarbamoyloxy-3-(3-quinoliniopropylsulfonylamino)propane iodide], under setting [1], the pIC50 was 6.40. For the compound `CCCCCCCCCCCCCCCCCCNC(=O)OCC(CNS(=O)(=O)CCCC[n+]1ccsc1)OC` (stereo not shown) [I a13, 2-methoxy-1-octadecylcarbamoyloxy-3-(4-thiazoliobutylsulfonylamino)propaneiodide], the pIC50 under setting [1] was 5.75. As for `CCCCCCCCCCCCCCCCCCNC(=O)OCC(CNS(=O)(=O)CCC[n+]1cccc2ccccc21)NC(=O)OC(C)(C)C` (stereo not shown) [I e6, 2-tert-butoxycarbonylamino-1-octadecylcarbamoyloxy-3-(3-quinoliniopropylsulfonylamino)propane iodide], under setting [1], the pIC50 was 5.51. On to `CCCCCCCCCCCCCCCCCCNC(=O)SCC(CNS(=O)(=O)CCC[n+]1cccc2ccccc21)OC` (stereo not shown) [I a25, 2-methoxy-1-octadecylcarbamoylthio-3-(3-quinoliniopropylsulfonylamino)propane iodide], for which, under setting [1], the pIC50 is 6.44.

As for `CCCCCCCCCCCCCCCCSCC(CNS(=O)(=O)CCC[N+](C)(C)C)OC` (stereo not shown) [I a8, 1-hexadecylthio-2-methoxy-3-(3-trimethylammoniopropylsulfonylamino)propaneiodide], under setting [1], the pIC50 was 4.09. For the compound “2-methoxy-1-octadecylcarbamoylthio-3-(4-quinoliniopropylsulfonyamino)propane chloride [I a27]”, the pIC50 is 6.13.

Regarding `CCCCCCCCCCCCCCCCSCC(CNS(=O)(=O)CCC[n+]1cccc2ccccc21)NC(=O)OC` (stereo not shown) [I e7, 1-hexadecylthio-2-methoxycarbonylamino-3-(3-quinoliniopropylsulfonylamino)propane iodide], under setting [1], the pIC50 was 6.07. `CCCCCCCCCCCCCCCCCCNC(=O)OCC(CNS(=O)(=O)CCC[n+]1ccncc1)OC` (stereo not shown) [I a6]: the pIC50 under setting [1] is 4.34.

Regarding `CCCCCCCCCCCCCCCCCCNC(=O)OCC(CNS(=O)(=O)CCC[N+](C)(C)C)OC` (stereo not shown) [I a1, 2-methoxy-1-octadecylcarbamoyloxy-3-(3-trimethylammoniosulfonylamino)propane chloride], the pIC50 under setting [1] is 4.32. In the case of `CCCCCCCCCCCCCCCCCCNC(=O)SCC(CNS(=O)(=O)CCC[n+]1ccsc1)OC` (stereo not shown) [I a26, 2-methoxy-1-octadecylcarbamoylthio-3-(3-thiazoliniopropylsulfonylamino)propane iodide], the pIC50 under setting [1] is 5.71. In the case of `CCCCCCCCCCCCCCCCSCC(CNS(=O)(=O)CCC[n+]1cccc2ccccc21)NC(=O)OC(C)(C)C` (stereo not shown) [I e8, 2-tert-butoxycarbonylamino-1-hexadecylthio-3-(3-quinoliniopropylsulfonylamino)propane iodide], the pIC50 under setting [1] was 5.71. The same measure, in the same setting: with `CCCCCCCCCCCCCCCCCCNC(=O)OCC(CNS(=O)(=O)CCC[n+]1cccc2ccccc21)NC(=O)NC` (stereo not shown) [I f3, 1-octadecylcarbamoyloxy-2-(3-methylureido)-3-(3-quinoliniopropylsulfonylamino)propane iodide] the figure was 6.02. For `CCCCCCCCCCCCCCCCSCC(CNS(=O)(=O)CCC[N+](C)(C)C)NC(C)=O` (stereo not shown) [I g2, 2-acetamido-1-hexadecylthio-3-(3-trimethylammoniopropylsulfonylamino)propane iodide], under setting [1], the pIC50 was 4.84. Take `CCCCCCCCCCCCCCCCCCNC(=O)OCC(CNS(=O)(=O)CCC[n+]1ccccc1)OC` (stereo not shown) [I a3]: the pIC50 under setting [1] is 5.28. Turning to `CCCCCCCCCCCCCCCCCCNC(=O)OCC(COC)CN(C(C)=O)S(=O)(=O)CCC[n+]1cccc2ccccc21` (stereo not shown) [I k6, 3-(N-acetyl-3-quinoliniopropylsulfonylamino)-2-methoxymethyl-1-octadecylcarbamoyloxypropane iodide], the pIC50 under setting [1] was 6.47. On to `CCCCCCCCCCCCCCCCOCC(CNS(=O)(=O)CCC[n+]1cccc2ccccc21)COC` (stereo not shown) [I k3, 1-hexadecyloxy-2-methoxymethyl-3-(3-quinoliniopropylsulfonylamino)propane iodide], for which the pIC50 under setting [1] is 6.22.

For `CCCCCCCCCCCCCCCCCCNC(=O)OCC(CNS(=O)(=O)CCC[N+]1(C)CCOCC1)OC` (stereo not shown) [I a4], the pIC50 under setting [1] is 4.19. Take `CCCCCCCCCCCCCCCCOCC(CNS(=O)(=O)CCC[n+]1ccsc1)OC` (stereo not shown) [I a11, 1-hexadecyloxy-2-methoxy-3-(3-thiazoliopropylsulfonylamino)propane iodide]: the pIC50 under setting [1] was 5.53.

Turning to `CCCCCCCCCCCCCCCCCCNC(=O)OCC(CNS(=O)(=O)CCC[n+]1cccc2ccccc21)OC(=O)NC` (stereo not shown) [I c3, 2-methylcarbamoyloxy-1-octadecylcarbamoyloxy-3(3-quinoliniopropylsulfonylamino)propane iodide], the pIC50 under setting [1] is 6.48.

As for `CCCCCCCCCCCCCCCCSCC(CNS(=O)(=O)CCC[N+](C)(C)C)COC` (stereo not shown) [I k4, 1-hexadecylthio-2-methoxymethyl-3-(3-trimethylammoniopropylsulfonylamino)propane iodide], the pIC50 under setting [1] was 4.10. With `CCCCCCCCCCCCCCCCCCNC(=O)OCC(CNS(=O)(=O)CCCC[n+]1ccc2ccccc2c1)OC` (stereo not shown) [I a16], the pIC50 under setting [1] is 4.87. For `CCCCCCCCCCCCCCCCOCC(CNS(=O)(=O)CCC[N+](C)(C)C)OC` (stereo not shown) [I a10, 1-hexadecyloxy-2-methoxy-3-(3-trimethylammoniopropylsulfonylamino)propane iodide], under setting [1], the pIC50 was 4.10.

As to `CCCCCCCCCCCCCCCCCCNC(=O)OCC(CNS(=O)(=O)CCC[n+]1cccc2ccccc21)NC(=O)OC` (stereo not shown) [I e5, 1-octadecylcarbamoyloxy-2-methoxycarbonylamino-3-(3-quinoliniopropylsulfonylamino)propane iodide], the pIC50 under setting [1] is 6.27.

For the compound `CCCCCCCCCCCCCCCCCCNC(=O)OCC1(CNS(=O)(=O)CCC[n+]2cccc3ccccc32)CCCO1` (stereo not shown) [I b2, 2-octadecylcarbamoyloxymethyl-2-(3-qunoliniopropylsulfonylaminomethyl)tetrahydrofuran iodido], under setting [1], the pIC50 is 6.41. On the same count and under the same terms, in the case of `CCCCCCCCCCCCCCCCCCNC(=O)OCC(CN(C(C)=O)S(=O)(=O)CCC[n+]1cccc2ccccc21)NC(C)=O` (stereo not shown) [I g6, 3-(N-acetyl-3-quinoliniopropylsulfonylamino)-2-acetamido-1-octadecylcarbamoyloxypropane iodide] it was 5.88; in that of `CCCCCCCCCCCCCCCCCCNC(=O)OCC(CNS(=O)(=O)CCCC[n+]1cccc2ccccc21)OC` (stereo not shown) [I a14], 5.89.

The values are drawn from US5138067A, “Lipid derivatives” (Shionogi & Co. Ltd., priority 1991, dated 1992).
